Activity calls are given as the source filed them. No cut-off for these calls is given here.
Experiments:
[1] = Anti-osteoporosis activity C57/BL6 mouse bone marrow macrophage cells assessed as inhibition of RANKL-induced osteoclastogenesis at 1 uM measured after 5 to 6 days in presence of M-CSF and RNKL by TRAP staining microscopic analysis; type: functional, BMDM; set-up: scale not given: the % may be the effect or the level left; conditions: time 5-6 day
[2] = Anti-osteoporosis activity C57/BL6 mouse bone marrow macrophage cells assessed as inhibition of RANKL-induced osteoclastogenesis at 0.1 uM measured after 5 to 6 days in presence of M-CSF and RNKL by TRAP staining microscopic analysis; type: functional, BMDM; set-up: scale not given: the % may be the effect or the level left; conditions: time 5-6 day
BMDM [3] = experiment: Cytotoxicity against C57/BL6 mouse bone marrow macrophage cells assessed as reduction in cell viability at 10 uM incubated for 3 days by CCK8 assay; type: toxicity, cell-based; conditions: 72 h, time 3 day
BMDM [4] = experiment: Anti-osteoporosis activity C57/BL6 mouse bone marrow macrophage cells assessed as inhibition of RANKL-induced osteoclastogenesis and measured after 5 to 6 days in presence of M-CSF by TRAP staining based assay; type: functional, cell-based; conditions: dose 0.1-5 µM, time 5-6 day, DDE = dose-dependent effect
BMDM [5] = experiment: Cytotoxicity against C57/BL6 mouse bone marrow macrophage cells at 5 uM measured after 3 days in presence of M-CSF by CCK-8 assay; type: toxicity, cell-based; conditions: 72 h, time 3 day
BMDM [6] = experiment: Anti-osteoporosis activity C57/BL6 mouse bone marrow macrophage cells assessed as inhibition of RANKL-induced F-actin levels upto 5 uM measured after 5 to 6 days in presence of M-CSF by DAPI staining analysis; type: functional, cell-based; conditions: time 5-6 day
BMDM [7] = experiment: Anti-osteoporosis activity C57/BL6 mouse bone marrow macrophage cells assessed as inhibition of RANKL-induced F-actin size upto 5 uM measured after 5 to 6 days in presence of M-CSF by DAPI staining analysis; type: functional, cell-based; conditions: time 5-6 day
[8] = Anti-osteoporosis activity C57/BL6 mouse bone marrow macrophage cells assessed as inhibition of RANKL-induced osteoclastogenesis measured after 5 to 6 days in presence of M-CSF by DAPI staining analysis; type: functional, cell-based; conditions: bmdm
BMDM [9] = experiment: Inhibition of RANKL-induced TRAP in mRNA expression in C57/BL6 mouse bone marrow macrophage cells upto 5 uM measured after 3 days by qRT-PCR analysis; type: functional, cell-based; conditions: time 3.0 day
BMDM [10] = experiment: Inhibition of RANKL-induced Cathepsin K in mRNA expression in C57/BL6 mouse bone marrow macrophage cells upto 5 uM measured after 3 days by qRT-PCR analysis; type: functional, cell-based; conditions: time 3.0 day
BMDM [11] = experiment: Inhibition of RANKL-induced c-fos in mRNA expression in C57/BL6 mouse bone marrow macrophage cells upto 5 uM measured after 3 days by qRT-PCR analysis; type: functional, cell-based; conditions: time 3.0 day
BMDM [12] = experiment: Inhibition of RANKL-induced NFATc1 in mRNA expression in C57/BL6 mouse bone marrow macrophage cells upto 5 uM measured after 3 days by qRT-PCR analysis; type: functional, cell-based; conditions: time 3.0 day
[13] = target: T1, Tumor necrosis factor ligand superfamily member 11 (Homo sapiens, UniProt O14788); experiment: Binding affinity to human RANKL assessed as dissociation constant by surface plasmon resonance method
T1 sequence (O14788 whole entry): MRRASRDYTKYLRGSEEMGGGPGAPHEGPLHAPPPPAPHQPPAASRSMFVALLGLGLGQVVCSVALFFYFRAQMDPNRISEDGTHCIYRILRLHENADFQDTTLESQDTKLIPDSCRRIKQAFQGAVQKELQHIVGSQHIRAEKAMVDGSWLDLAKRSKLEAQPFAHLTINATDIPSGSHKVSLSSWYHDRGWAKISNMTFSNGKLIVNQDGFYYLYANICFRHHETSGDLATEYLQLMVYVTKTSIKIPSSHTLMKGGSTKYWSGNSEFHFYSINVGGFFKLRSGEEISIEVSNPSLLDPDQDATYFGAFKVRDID

BMDM [14] = experiment: Inhibition of RANKL-induced c-FOS protein expression in C57/BL6 mouse bone marrow macrophage cells upto 10 uM measured for 3 days in presence of M-CSF and RANKL by Western blot analysis; type: functional, cell-based; conditions: time 3.0 day, DDE = dose-dependent effect
BMDM [15] = experiment: Inhibition of RANKL-induced NFATC1 protein expression in C57/BL6 mouse bone marrow macrophage cells upto 10 uM measured for 3 days in presence of M-CSF and RANKL by Western blot analysis; type: functional, cell-based; conditions: time 3.0 day, DDE = dose-dependent effect
[16] = AUC(0 to t) in OVX-induced C57/BL6 mouse model at 3 mg/kg, iv; type: ADME, organism-based; set-up: dose 3 mg/kg, route iv; conditions: female, in vivo
[17] = Half life in OVX-induced C57/BL6 mouse model at 3 mg/kg, iv; type: ADME, organism-based; conditions: female, in vivo
[18] = Clearance in OVX-induced C57/BL6 mouse model at 3 mg/kg, iv; type: ADME, organism-based; conditions: female, in vivo
[19] = Oral bioavailability in OVX-induced C57/BL6 mouse model; type: ADME, organism-based; conditions: female, in vivo
Mus musculus [20] = experiment: Anti-osteoporosis activity in OVX-induced C57/BL6 mouse model assessed as increase in bone mineral density by measuring recovery at 60 mg/kg, po once per day for 28 days by microCT imaging analysis; type: functional; conditions: time 28 day
[21] = AUC(0 to t) in OVX-induced C57/BL6 mouse model at 5 mg/kg, po; type: ADME, organism-based; set-up: dose 5 mg/kg, route po; conditions: female, in vivo
[22] = Cmax in OVX-induced C57/BL6 mouse model at 5 mg/kg, po; type: ADME, organism-based; set-up: dose 5 mg/kg, route po; conditions: female, in vivo
[23] = Half life in OVX-induced C57/BL6 mouse model at 5 mg/kg, po; type: ADME, organism-based; conditions: female, in vivo
Mus musculus [24] = experiment: Anti-osteoporosis activity in ligature-induced periodontal BALB/c mouse model assessed as decrease in bone loss at 20 mg/kg, ip measured for 4 weeks by microCT imaging analysis; type: functional, organism-based
Mus musculus [25] = experiment: Anti-osteoporosis activity in ligature-induced periodontal BALB/c mouse model assessed as increase in alveolar bone mass at 20 mg/kg, ip measured for 4 weeks by microCT imaging analysis; type: functional
Mus musculus [26] = experiment: Anti-osteoporosis activity in ligature-induced periodontal BALB/c mouse model assessed as increase in bone volume at 20 mg/kg, ip measured for 4 weeks by microCT imaging analysis; type: functional
Mus musculus [27] = experiment: Anti-osteoporosis activity in ligature-induced periodontal BALB/c mouse model assessed as increase in vertical bone at 20 mg/kg, ip measured for 4 weeks by microCT imaging analysis; type: functional

- AUC(0-t) [16]: 2710 ng·h/mL
- half-life [17]: 5.1 h
- clearance [18]: 18.6 mL/min/kg
- bioavailability [19]: 4.9%
- AUC(0-t) [21]: 223 ng·h/mL
- Cmax [22]: 48.1 ng/mL
- half-life [23]: 2 h
SMILES: Cc1cccc(C)c1NC(=O)c1cc2c([nH]c3ccccc32)c(CCc2ccccc2)n1
- Activity [1]: 89.3%
- Activity [2]: 45.9%
- Cell viability (BMDM [3]): > 100%
- Activity (BMDM [4]): Dde
- Activity (BMDM [5]): Non-Toxic
- Activity (BMDM [6]): Active
- Activity (BMDM [7]): Active
- IC50 [8]: 520 nM
- inhibition (BMDM [9]): Active
- inhibition (BMDM [10]): Active
- inhibition (BMDM [11]): Active
- inhibition (BMDM [12]): Active
- Kd [13]: 5030 nM
- inhibition (BMDM [14]): Dde
- inhibition (BMDM [15]): Dde
- Activity (Mus musculus [20]): 23.4%
- Activity (Mus musculus [24]): Active
- Activity (Mus musculus [25]): 60.7%
- Activity (Mus musculus [26]): 51.9%
- Activity (Mus musculus [27]): 67%
